Source: ChEMBL document CHEMBL5104178, “Nitroimidazopyrazinones with Oral Activity against Tuberculosis and Chagas Disease in Mouse Models of Infection” (J Med Chem, 2022)
Values after ≈ are worked out from the molar mass of the structure shown.

Tests used:
[1] = Stability in human plasma assessed as compound remaining measured after 2 hrs; format: ADME, cell-free; settings: read-out: Stability
[2] = Metabolic stability in mouse microsomes assessed as compound remaining measured after 2 hrs; format: ADME, Microsome; settings: read-out: Stability
[3] = Solubility of compound in water by LC-UV analysis; format: physicochemical; settings: water; read-out: solubility
[4] = Volume of distribution at steady state in CD-1 mouse at 5 mg/kg, iv administered as DMSO/PEG400 formulation measured upto 24 hrs by LC-MS/MS analysis; format: ADME, organism-based; settings: in vivo, read-out: Vdss
[5] = Metabolic stability in human microsomes assessed as compound remaining measured after 2 hrs; format: ADME, Microsome; settings: read-out: Stability
[6] = Cmax in CD-1 mouse at 20 mg/kg, po administered as DMSO/PEG400 formulation measured upto 24 hrs by LC-MS/MS analysis; format: ADME, organism-based; set-up: dose 20 mg/kg, time < 24 hrs, route po; settings: in vivo
[7] = Plasma protein binding in human; format: ADME, cell-free; settings: read-out: PPB (converted)
[8] = Clearance in CD-1 mouse at 5 mg/kg, iv administered as DMSO/PEG400 formulation measured upto 24 hrs by LC-MS/MS analysis; format: ADME, organism-based; settings: in vivo
[9] = system: Mycobacterium tuberculosis; assay: Substrate activity at Mycobacterium tuberculosis Ddn expressed in Escherichia coli BL21 (DE3) assessed as oxidation of F420H2 by measuring Km by spectrophotometric analysis
[10] = AUC(0 to 8 hrs) in CD-1 mouse at 20 mg/kg, po administered as DMSO/PEG400 formulation measured upto 24 hrs by LC-MS/MS analysis; format: ADME, organism-based; set-up: dose 20 mg/kg, time < 24 hrs, route po; settings: in vivo
[11] = Tmax in CD-1 mouse at 20 mg/kg, po administered as DMSO/PEG400 formulation measured upto 24 hrs by LC-MS/MS analysis; format: ADME, organism-based; settings: in vivo
[12] = system: Mycolicibacterium smegmatis; assay: Antimycobacterial activity against Mycobacterium smegmatis mc2155 ATCC 700084 assessed as bacterial growth inhibition incubated for 24 hrs under normoxic condition by resazurin microtiter assay; format: functional
[13] = Plasma protein binding in mouse; format: ADME, cell-free; settings: read-out: PPB (converted)
Mycobacterium avium = assay: Antimycobacterial activity against Mycobacterium avium ATCC 25291 assessed as bacterial growth inhibition incubated for 6 days under normoxic condition by resazurin microtiter assay; format: functional; settings: ATCC 25291, 144 h, time 6 day
[14] = Half life in CD-1 mouse at 5 mg/kg, iv administered as DMSO/PEG400 formulation measured upto 24 hrs by LC-MS/MS analysis; format: ADME, organism-based; settings: in vivo
[15] = Oral bioavailability in CD-1 mouse at 20 mg/kg administered as DMSO/PEG400 formulation measured upto 24 hrs by LC-MS/MS analysis; format: ADME, organism-based; settings: in vivo
[16] = system: Mycobacterium tuberculosis; assay: Substrate activity at Mycobacterium tuberculosis Ddn expressed in Escherichia coli BL21 (DE3) assessed as oxidation of F420H2 by measuring Kcat/Km by spectrophotometric analysis
[17] = system: Mycobacterium tuberculosis; assay: Substrate activity at Mycobacterium tuberculosis Ddn expressed in Escherichia coli BL21 (DE3) assessed as oxidation of F420H2 by measuring Kcat by spectrophotometric analysis
[18] = system: Mycobacterium tuberculosis; assay: Antimycobacterial activity against Mycobacterium tuberculosis H37Rv ATCC 27294 assessed as bacterial growth inhibition at 4 to 32 ug/ml incubated for 5 days under hypoxic condition by resazurin microtiter assay relative to control; format: functional; settings: dose 4-32 µg/ml; time 5 day
[19] = Solubility of compound in PBS at 7.4 by LC-UV analysis; format: physicochemical; settings: pH 7.4
[20] = system: Mycobacterium tuberculosis; assay: Antimycobacterial activity against Mycobacterium tuberculosis H37Rv ATCC 27294 assessed as bacterial growth inhibition incubated for 5 days under hypoxic condition by resazurin microtiter assay; format: functional; settings: H37Rv ATCC 27294, 120 h, time 5 day
[21] = system: Mycobacterium tuberculosis; assay: Antimycobacterial activity against Mycobacterium tuberculosis H37Rv ATCC 27294 assessed as bacterial growth inhibition incubated for 5 days under normoxic condition by resazurin microtiter assay; format: functional; settings: H37Rv ATCC 27294, 120 h, time 5 day
[22] = system: Mycobacterium tuberculosis; assay: Antimycobacterial activity against Mycobacterium tuberculosis H37Ra ATCC 25177 assessed as bacterial growth inhibition incubated for 6 days under normoxic condition by resazurin microtiter assay; format: functional; settings: H37Ra ATCC 25177, 144 h, time 6 day

Q: For `O=c1c2nc([N+](=O)[O-])cn2ccn1Cc1cccc(OC(F)(F)F)c1`, which remaining at 2 h [1] is on record?
A: Its remaining at 2 h is 99%.

Q: And the remaining at 2 h [2]?
A: Its remaining at 2 h is 97%.

Q: What about the solubility [3] of the same compound?
A: Its solubility is 5.4 µM (≈ 1.91 µg/mL).

Q: And the Vd [4]?
A: Its Vd is 1.1 L/kg.

Q: And the remaining at 2 h [5]?
A: Its remaining at 2 h is greater than 99%.

Q: What about the Cmax [6] of the same compound?
A: Its Cmax is 2900 ng/mL.

Q: And the fraction unbound [7]?
A: Its fraction unbound is less than 0.01.

Q: And the clearance [8]?
A: The clearance was 10.1 mL/min/kg.

Q: And the Km [9]?
A: The Km was 45 µM.

Q: What about the AUC(0-t) at 24 h [10] of the same compound?
A: The AUC(0-t) at 24 h was 15600 ng·h/mL.

Q: What about the Tmax [11] of the same compound?
A: The Tmax was 3 h.

Q: And the MIC [12]?
A: Its MIC is greater than 32 µg/mL.

Q: What about the fraction unbound [13] of the same compound?
A: Its fraction unbound is less than 0.01.

Q: What about the MIC (Mycobacterium avium) of the same compound?
A: Its MIC is greater than 32 µg/mL.

Q: And the half-life [14]?
A: The half-life was 1.1 h.

Q: And the bioavailability [15]?
A: The bioavailability was 73%.

Q: What about the kcat/Km [16] of the same compound?
A: Its kcat/Km is 70 M⁻¹ s⁻¹.

Q: And the kcat [17]?
A: Its kcat is 3.1 10^-3/s.

Q: Which results are given for `O=c1c2nc([N+](=O)[O-])cn2ccn1Cc1cncc(-c2ccc(OC(F)(F)F)cc2)c1`?
A: Km [9]: 2.6 µM; inhibition (INH) [18]: 82%; kcat/Km [16]: 4470 M⁻¹ s⁻¹; kcat [17]: 1.2 10^-2/s

Q: Which Km [9] does the source give for `O=C(NCc1ccc(OC(F)(F)F)cc1)c1ncc([N+](=O)[O-])[nH]1` here?
A: Its Km is 31 µM.

Q: What about the kcat/Km [16] of the same compound?
A: Its kcat/Km is 6.9 M⁻¹ s⁻¹.

Q: And the kcat [17]?
A: The kcat was 2.1 10^-4/s.

Q: With `O=c1c2nc([N+](=O)[O-])cn2ccn1Cc1ccc(-c2cccc(OC(F)(F)F)c2)cc1` as the compound, how does the Km [9] read?
A: Its Km is 8.4 µM.

Q: And the kcat/Km [16]?
A: The kcat/Km was 370 M⁻¹ s⁻¹.

Q: What about the kcat [17] of the same compound?
A: The kcat was 3.1 10^-3/s.

Q: For `O=c1c2nc([N+](=O)[O-])cn2ccn1Cc1ccc(N2CCCCC2)cc1`, which Km [9] is on record?
A: The Km was 2.2 µM.

Q: What about the kcat/Km [16] of the same compound?
A: Its kcat/Km is 773 M⁻¹ s⁻¹.

Q: What about the kcat [17] of the same compound?
A: Its kcat is 1.7 10^-3/s.

Q: Which solubility [19] does the source give for `O=C1CCn2cc([N+](=O)[O-])nc2N1Cc1ccccc1` here?
A: Its solubility is 142 µM (≈ 38.7 µg/mL).

Q: What about the solubility [3] of the same compound?
A: Its solubility is 137 µM (≈ 37.3 µg/mL).

Q: And the MIC [20]?
A: Its MIC is greater than 32 µg/mL.

Q: What about the MIC [21] of the same compound?
A: The MIC was greater than 32 µg/mL.

Q: For `Cc1c(C)n2cc([N+](=O)[O-])nc2c(=O)n1Cc1ccc(OC(F)(F)F)cc1`, which Km [9] is on record?
A: Its Km is 28 µM.

Q: What about the MIC [12] of the same compound?
A: The MIC was greater than 32 µg/mL.

Q: And the MIC (Mycobacterium avium)?
A: Its MIC is greater than 32 µg/mL.

Q: And the kcat/Km [16]?
A: Its kcat/Km is 244 M⁻¹ s⁻¹.

Q: And the kcat [17]?
A: The kcat was 6.9 10^-3/s.

Q: Which Km [9] does the source give for `O=c1c2nc([N+](=O)[O-])cn2ccn1Cc1ccc(-c2cccc(OC(F)(F)F)c2)nc1` here?
A: The Km was 5 µM.

Q: What about the kcat/Km [16] of the same compound?
A: The kcat/Km was 266 M⁻¹ s⁻¹.

Q: What about the kcat [17] of the same compound?
A: The kcat was 1.3 10^-3/s.

Q: For `NNC(=O)c1ccncc1` [ISONIAZID], which MIC [12] is on record?
A: Its MIC is greater than 32 µg/mL.

Q: And the MIC [22]?
A: Its MIC is 0.031 µg/mL (≈ 0.226 µM).

Q: What about the MIC (Mycobacterium avium) of the same compound?
A: Its MIC is greater than 32 µg/mL.

Q: With `O=c1c2nc([N+](=O)[O-])cn2ccn1Cc1ccccc1` as the compound, how does the solubility [19] read?
A: The solubility was 2.7 µM (≈ 0.73 µg/mL).

Q: What about the solubility [3] of the same compound?
A: Its solubility is 3.2 µM (≈ 0.865 µg/mL).
